Data as given in US20230140216A1, “COMBINATION THERAPY FOR TREATING MPS1” (GAIN THERAPEUTICS SA, priority 2020, published 2023).

Tests used:
[1] = molecular target: T1, Recombinant human α-L-iduronidase protein (Homo sapiens, UniProt P35475); assay: Differential scanning fluorimetry (DSF) thermal stabilization; format: binding
T1 construct: purchased R&D
T1 sequence (P35475 28-653): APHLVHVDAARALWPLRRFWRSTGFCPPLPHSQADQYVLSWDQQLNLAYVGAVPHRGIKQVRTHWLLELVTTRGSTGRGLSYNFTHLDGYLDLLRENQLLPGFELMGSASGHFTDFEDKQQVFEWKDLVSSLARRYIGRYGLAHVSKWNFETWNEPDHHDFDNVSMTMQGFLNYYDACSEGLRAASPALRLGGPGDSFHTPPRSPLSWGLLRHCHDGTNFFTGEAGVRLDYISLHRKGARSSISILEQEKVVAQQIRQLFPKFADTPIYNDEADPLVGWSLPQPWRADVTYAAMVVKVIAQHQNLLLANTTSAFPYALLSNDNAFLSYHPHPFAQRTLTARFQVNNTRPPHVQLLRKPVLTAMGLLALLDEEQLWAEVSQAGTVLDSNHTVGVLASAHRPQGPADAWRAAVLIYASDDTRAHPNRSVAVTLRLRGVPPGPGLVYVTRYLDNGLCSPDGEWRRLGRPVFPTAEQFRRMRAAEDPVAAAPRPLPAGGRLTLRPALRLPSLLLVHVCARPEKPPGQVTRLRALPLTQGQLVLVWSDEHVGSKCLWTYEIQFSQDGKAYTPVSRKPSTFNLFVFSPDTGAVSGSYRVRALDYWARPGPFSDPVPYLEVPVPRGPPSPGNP
Outline: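 Purified recombinant human α-L-iduronidase (final 0.75 µM) in 100 mM Hepes, 20 mM MgCl2, pH 7 with SYPRO Orange was heated with compounds (final 1% DMSO). Thermal denaturation was followed by probe fluorescence during a temperature ramp, and stabilization expressed as ΔTm, binned into four categories (A–D).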

[2] = molecular target: T2, Recombinant human α-L-iduronidase protein (Homo sapiens, UniProt P35475); assay: Denaturation prevention assay in neutral pH buffer; format: biochemical; conditions: 30 µM compound, pH 7, 37° C.
T2 construct: Ala26-Pro653 with a C-terminal 10_His tag; 10xHis (C); host or cells: HEK293f (stated in b1366 for the UAB protein)
T2 sequence (P35475 26-653): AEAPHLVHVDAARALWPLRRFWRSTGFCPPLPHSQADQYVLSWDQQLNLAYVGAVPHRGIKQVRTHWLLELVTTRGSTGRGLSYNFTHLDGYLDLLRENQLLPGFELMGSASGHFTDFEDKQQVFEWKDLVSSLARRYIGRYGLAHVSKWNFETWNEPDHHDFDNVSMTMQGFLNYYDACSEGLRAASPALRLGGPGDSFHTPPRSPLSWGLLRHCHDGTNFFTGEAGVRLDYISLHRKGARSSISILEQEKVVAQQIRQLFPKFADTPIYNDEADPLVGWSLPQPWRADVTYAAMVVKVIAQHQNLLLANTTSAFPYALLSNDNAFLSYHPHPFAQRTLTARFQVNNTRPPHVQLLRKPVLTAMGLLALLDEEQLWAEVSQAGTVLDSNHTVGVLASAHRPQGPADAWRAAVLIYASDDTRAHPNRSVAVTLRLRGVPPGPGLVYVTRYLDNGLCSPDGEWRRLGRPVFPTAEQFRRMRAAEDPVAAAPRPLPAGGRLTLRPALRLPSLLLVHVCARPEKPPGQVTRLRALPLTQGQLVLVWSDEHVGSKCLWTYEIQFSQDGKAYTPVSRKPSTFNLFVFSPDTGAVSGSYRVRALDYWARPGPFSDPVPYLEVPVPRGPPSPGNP
Experimental: The capacity of Compounds of the Disclosure to stabilize α-L-iduronidase in neutral pH buffer was assessed using the denaturation prevention assay.
Briefly, recombinant human α-L-iduronidase protein (obtained in the Institute of Biotechnology and Biomedicine in the UAB, Bellaterra, Spain) was combined at a final concentration of 1 µM with 5X of SYPRO Orange and 30 µM of the corresponding compound in a final reaction volume of 25 µL in 100 mM Hepes 20 mM MgCl2 pH 7 buffer. Reactions were incubated at 37° C. and SYPRO Orange fluorescence intensity was monitored at the indicated time points using Glomax® Discover Microplate Reader from Promega (Madison, WI, USA).
The compound referred to as Compound A throughout this specification is the compound of Example 8 described above. […] (T=37° C.).

CCN(CC(=O)Nc1c(Cl)cccc1Cl)Cc1nc2ccsc2c(=O)[nH]1 [Compound A]
stabilization of recombinant human IDUA (thermal shift) ([1]; DSF dose response, maximum shift): up to 4 °C | Kd ([1]; thermal shift dose response curve): 22 µM | prevention of pH-induced IDUA denaturation [2]: slows down pH-induced denaturation
